Assay results from paper PMC5515969, “Effects of 31 FDA approved small-molecule kinase inhibitors on isolated rat liver mitochondria” (Archives of Toxicology, 2016).
Where two headings read alike, the source gives them in different places. Marks after values point to notes of the source that are not given here.

Experiments:
[1] = system: isolated rat liver mitochondria; experiment: Mitochondrial ROS production (CM-H2DCFDA)
RCC IV = RCC IV activity in submitochondrial particles; format: biochemical, rat; design: key to RCC IV at 50XCmax / RCC IV at 100XCmax: activity relative to DMSO-treated controls (control set as 1 = 100%); conditions: 50XCmax; DMSO treated samples set as 1; in %
Method in brief: (§1)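 Rat submitochondrial particles (1 mg/ml) were treated with test compounds for 15 min. RCC IV, like RCC III, was monitored at 550 nm every 10 s for 2 min, and RCC I/V at 340 nm each minute for 6 min. DMSO samples defined unit activity.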

[2] = cited from earlier work
[3] = system: isolated rat liver mitochondria; experiment: Mitochondrial oxygen consumption (glutamate/malate or succinate driven, state 4 and state 3); format: biochemical; conditions: for Glutamate/malate driven respiration State 3 / Glutamate/malate driven respiration State 4 / Succinate-driven respiration State 3 / Succinate-driven respiration State 4: oxygen consumption, DMSO-treated = 1; for State 3 respiration driven by succinate at 10XCmax: key: 0 indicates that the drug had no effects (negative); for State 3 respiration driven by succinate at 1XCmax: key: 0 indicates that the drug had no effects (negative)
Method in brief: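 Oxygen uptake on glutamate/malate or on succinate defined state 4; ADP added 3 min later gave state 3. Mitochondria isolated from rat liver by differential centrifugation, adjusted to 1 mg/ml and pretreated 5 min with inhibitor (0.1% DMSO final). Values relative to DMSO control, set to 1.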

[4] = system: isolated rat liver mitochondria; experiment: Mitochondrial inner membrane potential (MMP), Rhodamine 123; format: biochemical
Text: Fig. 3 KI effects on mitochondrial inner membrane potential (MMP). […] In a, c, data are means and standard derivations from three separate experiments. *p < 0.05 as compared to DMSO-treated samples at the end of experiments. In b, data are means of two independent experiments

[5] = system: isolated rat liver mitochondria; experiment: Mitochondrial swelling (absorbance at 535 nm); format: biochemical; for Swelling 5XCmax: key: 0 indicates that the drug had no effects (negative)
RCC III = RCC III activity in submitochondrial particles; format: biochemical, rat; design: key to RCC III at 100XCmax: activity relative to DMSO-treated controls (control set as 1 = 100%); conditions: 100XCmax
Method in brief: as §1

[6] = system: isolated rat liver mitochondria; conditions: positive control alamethicin treated samples
[7] = cited from earlier work; remark: listed apart in the source
[8] = 1XCmax, DMSO treated samples set as 1
[9] = 2.5XCmax, DMSO treated samples set as 1
[10] = 5XCmax, DMSO treated samples set as 1
[11] = 10XCmax, DMSO treated samples set as 1
[12] = 20XCmax, DMSO treated samples set as 1
[13] = 30XCmax, DMSO treated samples set as 1
[14] = 50XCmax, DMSO treated samples set as 1
[15] = 100XCmax, DMSO treated samples set as 1
[16] = 1XCmax, difference in signal between KI and DMSO treated samples at the end of experiments
[17] = 2.5XCmax, difference in signal between KI and DMSO treated samples at the end of experiments
[18] = 5XCmax, difference in signal between KI and DMSO treated samples at the end of experiments
[19] = 10XCmax, difference in signal between KI and DMSO treated samples at the end of experiments
[20] = 20XCmax, difference in signal between KI and DMSO treated samples at the end of experiments
[21] = 30XCmax, difference in signal between KI and DMSO treated samples at the end of experiments
[22] = 50XCmax, difference in signal between KI and DMSO treated samples at the end of experiments
[23] = 100XCmax, difference in signal between KI and DMSO treated samples at the end of experiments

With CC(C)(C)c1nc(-c2cccc(NS(=O)(=O)c3c(F)cccc3F)c2F)c(-c2ccnc(N)n2)s1 [Dabrafenib] the “lowest concentration triggering ROS overproduction” value [1] was 50 fold Cmax, the “ROS measured by CM-H2DCFDA at 1XCmax” value [1, 8] was 0 and the “ROS measured by CM-H2DCFDA at 2.5XCmax” value [1, 9] was 0. The “ROS measured by CM-H2DCFDA at 5XCmax” value [1, 10] was 0, the “ROS measured by CM-H2DCFDA at 10XCmax” value [1, 11] was 0 and the “ROS measured by CM-H2DCFDA at 20XCmax” value [1, 12] was 0. For the same compound, the “ROS measured by CM-H2DCFDA at 30XCmax” value [1, 13] was 0, the “ROS measured by CM-H2DCFDA at 50XCmax” value [1, 14] was 2.23±0.44 and the “ROS measured by CM-H2DCFDA at 100XCmax” value [1, 15] was 1.80±0.16. For the same compound, the “effect on ROS production” value ([1]; highest tested concentrations) was “significantly ROS production”, the “RCC IV at 50XCmax” value (RCC IV) was 0 and the “DILI potential (based on labeling)” value ([2]; 1 DILI positive, 0 negative according to labeling, ref product labeling) was 0. For the same compound, the “DILI potential (based on labeling)” value ([2]; ref FDA product labeling) was 0, the “State 3 respiration driven by glutamate/malate at 1XCmax” value [3, 8] was 0 and the “State 3 respiration driven by succinate at 1XCmax” value [3, 8] was 0. The “State 4 respiration driven by glutamate/malate at 1XCmax” value [3, 8] was 0, the “State 4 respiration driven by succinate at 1XCmax” value [3, 8] was 0 and the “State 3 respiration driven by glutamate/malate at 2.5XCmax” value [3, 9] was 0. For the same compound, the “State 3 respiration driven by succinate at 2.5XCmax” value [3, 9] was 0, the “State 4 respiration driven by glutamate/malate at 2.5XCmax” value [3, 9] was 0 and the “State 4 respiration driven by succinate at 2.5XCmax” value [3, 9] was 0. For the same compound, the “State 3 respiration driven by glutamate/malate at 5XCmax” value [3, 10] was 0, the “State 3 respiration driven by succinate at 5XCmax” value [3, 10] was 0 and the “State 4 respiration driven by glutamate/malate at 5XCmax” value [3, 10] was 0. The “State 4 respiration driven by succinate at 5XCmax” value [3, 10] was 0, the “Glutamate/malate driven respiration State 3” value ([3]; 10-fold Cmax) was 0.94 ± 0.04 and the “Glutamate/malate driven respiration State 4” value ([3]; 10-fold Cmax) was 1.35 ± 0.19. For the same compound, the “Succinate-driven respiration State 3” value ([3]; 10-fold Cmax) was 0.97 ± 0.07, the “Succinate-driven respiration State 4” value ([3]; 10-fold Cmax) was 1.38 ± 0.13 and the “State 3 respiration driven by glutamate/malate at 10XCmax” value [3, 11] was 0. The “State 3 respiration driven by succinate at 10XCmax” value [3, 11] was 0, the “State 4 respiration driven by glutamate/malate at 10XCmax” value [3, 11] was 1.35±0.19 and the “State 4 respiration driven by succinate at 10XCmax” value [3, 11] was 1.38±0.13. For the same compound, the “Glutamate/malate driven respiration State 3” value ([3]; 20-fold Cmax) was 0.90 ± 0.05, the “Glutamate/malate driven respiration State 4” value ([3]; 20-fold Cmax) was 1.59 ± 0.05 and the “Succinate-driven respiration State 3” value ([3]; 20-fold Cmax) was 0.65 ± 0.01. The “Succinate-driven respiration State 4” value ([3]; 20-fold Cmax) was 1.31 ± 0.02, the “State 3 respiration driven by glutamate/malate at 20XCmax” value [3, 12] was 0 and the “State 3 respiration driven by succinate at 20XCmax” value [3, 12] was 0.65±0.01. For the same compound, the “State 4 respiration driven by glutamate/malate at 20XCmax” value [3, 12] was 1.59±0.05, the “State 4 respiration driven by succinate at 20XCmax” value [3, 12] was 1.31±0.02 and the “Glutamate/malate driven respiration State 3” value ([3]; 30-fold Cmax) was 0.71 ± 0.03. For the same compound, the “Glutamate/malate driven respiration State 4” value ([3]; 30-fold Cmax) was 2.22 ± 0.24, the “Succinate-driven respiration State 3” value ([3]; 30-fold Cmax) was 0.59 ± 0.07 and the “Succinate-driven respiration State 4” value ([3]; 30-fold Cmax) was 1.52 ± 0.12. For the same compound, the “State 3 respiration driven by glutamate/malate at 30XCmax” value [3, 13] was 0.71±0.03, the “State 3 respiration driven by succinate at 30XCmax” value [3, 13] was 0.59±0.07 and the “State 4 respiration driven by glutamate/malate at 30XCmax” value [3, 13] was 2.22±0.24. For the same compound, the “State 4 respiration driven by succinate at 30XCmax” value [3, 13] was 1.52±0.12, the “Glutamate/malate driven respiration State 3” value ([3]; 50-fold Cmax) was 0.56 ± 0.05 and the “Glutamate/malate driven respiration State 4” value ([3]; 50-fold Cmax) was 2.42 ± 0.21. The “Succinate-driven respiration State 3” value ([3]; 50-fold Cmax) was 0.44 ± 0.10, the “Succinate-driven respiration State 4” value ([3]; 50-fold Cmax) was 1.69 ± 0.30 and the “State 3 respiration driven by glutamate/malate at 50XCmax” value [3, 14] was 0.56±0.05. The “State 3 respiration driven by succinate at 50XCmax” value [3, 14] was 0.44±0.10, the “State 4 respiration driven by glutamate/malate at 50XCmax” value [3, 14] was 2.42±0.21 and the “State 4 respiration driven by succinate at 50XCmax” value [3, 14] was 1.69±0.30. For the same compound, the “Glutamate/malate driven respiration State 3” value ([3]; 100-fold Cmax) was 0.41 ± 0.05, the “Glutamate/malate driven respiration State 4” value ([3]; 100-fold Cmax) was 2.49 ± 0.32 and the “Succinate-driven respiration State 3” value ([3]; 100-fold Cmax) was 0.28 ± 0.01. For the same compound, the “Succinate-driven respiration State 4” value ([3]; 100-fold Cmax) was 1.03 ± 0.09, the “State 3 respiration driven by glutamate/malate at 100XCmax” value [3, 15] was 0.41±0.05 and the “State 3 respiration driven by succinate at 100XCmax” value [3, 15] was 0.28±0.01. The “State 4 respiration driven by glutamate/malate at 100XCmax” value [3, 15] was 2.49±0.32, the “State 4 respiration driven by succinate at 100XCmax” value [3, 15] was 0 and the “effect on state 4 respiration” value ([3]; highest tested concentrations) was “significant increases”. For the same compound, the “lowest concentration significantly affecting mitochondrial oxygen consumption” value ([3]; tested at 1 to 100-fold Cmax) was “tenfold”, the “lowest concentration decreasing MMP” value [4] was 20 fold Cmax and the “MMP measured by Rhodamine 123 at 1XCmax” value [4, 16] was 0. The “MMP measured by Rhodamine 123 at 2.5XCmax” value [4, 17] was 0, the “MMP measured by Rhodamine 123 at 5XCmax” value [4, 18] was 0 and the “MMP measured by Rhodamine 123 at 10XCmax” value [4, 19] was 0. The “MMP measured by Rhodamine 123 at 20XCmax” value [4, 20] was 660±95*, the “MMP measured by Rhodamine 123 at 30XCmax” value [4, 21] was 773±60* and the “MMP measured by Rhodamine 123 at 50XCmax” value [4, 22] was 953±54*. The “MMP measured by Rhodamine 123 at 100XCmax” value [4, 23] was 926±89*, the “effect on MMP” value ([4]; up to 100-fold Cmax or highest testable concentration) was “decrease in MMP” and the “lowest concentration causing mitochondrial swelling” value [5] was “tenfold”. For the same compound, the “Swelling 1XCmax” value [5, 16] was 0, the “Swelling 2.5XCmax” value [5, 17] was 0 and the “Swelling 5XCmax” value [5, 18] was 0. For the same compound, the “Swelling 10XCmax” value [5, 19] was 0.20±0.02, the “Swelling 20XCmax” value [5, 20] was 0.48±0.05 and the “Swelling 30XCmax” value [5, 21] was 0.46±0.05. For the same compound, the “Swelling 50XCmax” value [5, 22] was 0.44±0.04, the “Swelling 100XCmax” value [5, 23] was 0.39±0.04 and the “effect on mitochondrial swelling” value ([5]; up to 100-fold Cmax or highest testable concentration, 25 µM calcium chloride) was “significant mitochondrial swelling”. For the same compound, the “RCC III at 100XCmax” value (RCC III) was 0, the “Cytochrome c release 1XCmax” value ([6]; 1XCmax) was 0 and the “Cytochrome c release 2.5XCmax” value ([6]; 2.5XCmax) was 0. The “Cytochrome c release 5XCmax” value ([6]; 5XCmax) was 19.44±2.10 percentage of the positive control group, the “Cytochrome c release 10XCmax” value ([6]; 10XCmax) was 15.99±0.85 percentage of the positive control group and the “Cytochrome c release 20XCmax” value ([6]; 20XCmax) was 17.52±7.37 percentage of the positive control group. For the same compound, the “Cytochrome c release 30XCmax” value ([6]; 30XCmax) was 17.54±2.16 percentage of the positive control group, the “Cytochrome c release 50XCmax” value ([6]; 50XCmax) was 21.81±7.02 percentage of the positive control group and the “Cytochrome c release 100XCmax” value ([6]; 100XCmax) was 15.21±0.35 percentage of the positive control group. For the same compound, the Cmax ([7]; human therapeutic Cmax at FDA recommended dosages, ref product labeling and drug approval packages at the official FDA website) was 2.84 µM, the “Cmax (ng or µg/ml)” value ([7]; human therapeutic maximal blood concentration, ref product labeling) was 1,478 ng/ml and the Cmax ([7]; read-out: Cmax at µM, human therapeutic maximal blood concentration, ref product labeling) was 2.84 µM.
